Assay results: patent US20110091570A1, “Compositions and Devices for Antisepsis and Anticoagulation” (priority 2008, published 2011)
Values joined by “and” are separate entries in the source; they are usually repeats but may differ in a detail not shown here. Identical values can stand only once.

How the values were obtained:
Pseudomonas aeruginosa = assay: Bactericidal activity of NCT without and with heparin (CFU counts); assay type: cell-based
[1] = system: Staphylococcus aureus (ATCC 25923); assay: as above; assay type: cell-based
Procedure: FIG. 1 presents a plot of bactericidal activity of 1% NCT without and with 125 IE/mL heparin against Staphylococcus aureus ATCC 25923 at pH 7.1 and 37° C. Mean values standard error of the mean of three independent experiments. P>0.05 between NCT without and NCT with heparin.
NCT was dissolved in 0.1 M phosphate buffer containing either 125 IE/mL heparin or no heparin. The final NCT concentration was 1%. Various bacterial species were grown in tryptic soy broth overnight, were washed twice in saline and then suspended in the NCT and NCT/heparin solutions. The species were Staphylococcus aureus (ATCC 25923), Escherichia coli (ATCC 11229), Streptococcus pyogenes, Staphylococcus epidermidis, Pseudomonas aeruginosa, Proteus mirabilis, and methicillin-resistant Staphylococcus aureus. Controls were performed with the foregoing bacterial species suspended in 0.1 M phosphate buffer without additives and in 0.1 M phosphate buffer containing 125 IE/mL heparin. All of the solutions were incubated at 37° C. and pH 7.1. After 1, 3, 5, 8, and 10 minutes, aliquots of 100 μL were removed and diluted 10-fold or 100-fold in 0.6% sodium thiosulfate solution to inactivate the NCT. Aliquots (50 μL) of these dilutions were spread on tryptic soy agar plates. The plates were incubated at 37° C. and colony forming units of bacteria were counted after 24 and 48 hours. […]

human eyes = human eyes [Ref. 13]; cited from earlier work
citrate blood [2] = assay: Prothrombin time (PT), Thromborel S test; assay type: biochemical, human; conditions: for PT (%): Example 6, single volunteer; for Prothrombin time (PT) / Prothrombin time (PT), mean value: Example 7; for Prothrombin time (PT): individual subjects 1-11; for Prothrombin time (PT), mean value: mean of 11 subjects
Procedure: (§1) Whole blood was taken from volunteers and enriched with trisodium citrate (0.3 mL of a 0.106 molar solution per 3 mL whole blood) (S-Monovette®, Sarstedt, Nümbrecht, Germany). Routine coagulation tests were performed on the following samples:
(§2) The following commercial coagulation tests were performed according to the prescription of the manufacturer: prothrombin time (PT) was determined using Thromborel® S test (Dade Behring GmbH, Marburg, Germany); activated partial thromboplastin time (aPTT) was determined using Pathromtin* SL test (Dade Behring GmbH, Marburg, Germany); and thrombin time (TT) was determined using BC Thrombin Reagent test (Dade Behring GmbH, Marburg, Germany).
(§3) Whole blood was taken from a single volunteer and enriched with trisodium citrate (0.3 mL of a 0.106 molar solution per 3 mL whole blood) (S-Monovette®, Sarstedt, Nümbrecht, Germany). Portions of 1.8 mL citrate blood were mixed with 0.2 mL NCT in 0.9% saline. The following final (after dilution in blood) NCT concentrations were tested separately: 1% (55 mM); 0.5% (27.5 mM); 0.25% (13.75 mM); 0.1% (5.5 mM); 0.05% (2.75 mM); 0.025% (1.375 mM); and 0.01% (0.55 mM). A control without NCT was performed in parallel. The following commercial coagulation tests were performed according to the prescription of the manufacturer: prothrombin time (PT) was determined using Thromborel® S test (Dade Behring GmbH, Marburg, Germany), activated partial thromboplastin time (aPTT) was determined using Pathromtin* SL test (Dade Behring GmbH, Marburg, Germany); thrombin time (TT) was determined using BC Thrombin Reagent test (Dade Behring GmbH, Marburg, Germany); and fibrinogen was determined using Multifibren* U test (Dade Behring GmbH, Marburg, Germany).
(§4) Whole blood was taken from 11 volunteers and enriched with trisodium citrate (0.3 mL of a 0.106 molar solution per 3 mL whole blood) (S-Monovette®, Sarstedt, Nümbrecht, Germany). Commercial coagulation tests (as described in Example 6) were performed with the following samples: […]

[3] = system: Escherichia coli, ATCC 11229; assay: Bactericidal activity of NCT with heparin in human whole blood; assay type: cell-based; conditions: 37° C.
Procedure: FIG. 11 presents a plot of bactericidal activity of 1% NCT with 125 IE/mL heparin in human blood against Escherichia coli (ATCC 11229) at pH 7.1 and 37° C. Mean values±standard error of the mean of three independent experiments. P<0.01 between NCT and control samples.
Bacteria (Staphylococcus aureus, ATCC 25923 and Escherichia coli, ATCC 11229) grown in tryptic soy broth overnight were washed twice in saline and suspended in human whole blood containing 125 IE/mL heparin. Different volumes of a saline solution of NCT sodium salt were added to the suspension so that the test samples contained 10%, 25%, 50%, and 75% blood. In addition, 100% blood plus 125 IE/mL heparin was tested at which NCT was directly dissolved in blood. The final NCT concentration after mixing blood and NCT solutions was 1% in all samples. Controls contained 100% blood plus 125 IE/mL heparin and 10%, 25%, 50% and 75% blood, respectively, in saline, plus 125 IE/mL heparin without NCT. All of the solutions were incubated at 37° C. and pH 7.36-7.44 (the pH of blood). After 1, 3, 5, 10, 15, 30, 45 and 60 minutes, aliquots of 100 μL were removed and diluted tenfold or 100-fold in 0.6% sodium thiosulfate solution to inactivate the NCT. Aliquots (50 μL) of these dilutions were spread on tryptic soy agar plates. The plates were incubated at 37° C. and colony forming units of bacteria were counted after 24 and 48 hours. […]

citrate blood [4] = assay: Routine coagulation tests, overall anticoagulant effect; assay type: biochemical, human
Procedure: as §1, §2, §3, §4

[5] = 0.1% NCT, virtually identical experiments
[6] = 1% NCT, 125 IE/mL heparin, pH 7.1, 37° C., 1-10 min

Compound: O=S(=O)(O)CCNCl [NCT, N-chlorotaurine]
- influence of heparin on the killing of bacteria (Pseudomonas aeruginosa; [5]): no statistically significant influence of heparin on the killing of bacteria
- killing activity of NCT with vs without heparin (Pseudomonas aeruginosa; [6]): no difference in the killing activity
- influence of heparin on the killing of bacteria [1, 5]: no statistically significant influence of heparin on the killing of bacteria
- killing activity of NCT with vs without heparin [1, 6]: no difference in the killing activity
- tolerability in topical and localized applications (human eyes): relatively safe and well-tolerated
- prothrombin time (citrate blood [2]; Example 5, 1% NCT final concentration in citrate blood): above the test limits
- PT (%) (citrate blood [2]; 0.01% (0.55 mM) NCT final): 91.4%
- PT (%) (citrate blood [2]; 0.025% (1.375 mM) NCT final): 70.6%
- PT (%) (citrate blood [2]; 0.05% (2.75 mM) NCT final): 33.4%
- PT (%) (citrate blood [2]; 0.1% (5.5 mM) NCT final): <limit
- PT (%) (citrate blood [2]; 0.25% (13.75 mM) NCT final): <limit
- PT (%) (citrate blood [2]; 0.5% (27.5 mM) NCT final): <limit
- PT (%) (citrate blood [2]; 1% (55 mM) NCT final): <limit
- Prothrombin time (PT) (citrate blood [2]; 0.01% NCT): 70% and 59% and 95% and 62% and 88% and 61% and 86% and 72% and 77% and 74% and 79%
- Prothrombin time (PT), mean value (citrate blood [2]; 0.01% NCT): 74.8%
- Prothrombin time (PT) (citrate blood [2]; 0.025% NCT): 28% and 20% and 50% and 10% and 21% and 16% (2×) and 25% and 36% and 24% and 32%
- Prothrombin time (PT), mean value (citrate blood [2]; 0.025% NCT): 25.3%
- bactericidal activity in blood ([3]; 1% NCT dissolved in 100% blood plus 125 IE/mL heparin): no significant bactericidal activity was detected
- bactericidal activity in blood ([3]; 1% NCT in 10%, 25%, 50% and 75% blood plus 125 IE/mL heparin): demonstrated bactericidal activity
- effect on the anticoagulant activity of heparin (citrate blood [4]; Example 5, 1% NCT final concentration): does not counteract the anticoagulant activity of heparin
- anticoagulant activity of NCT alone (citrate blood [4]; Example 5, 1% NCT without heparin): has anticoagulant activity
- anticoagulant effect (citrate blood [4]; NCT 0.55 mmol/L): significant anticoagulant effect
- anticoagulant effect (citrate blood [4]; NCT 1.375 mmol/L): strong effect
